Literature values in patent US20170072072A1, “PH SENSITIVE FLUORESCENT COMPOUNDS AND METHODS FOR TUMOR DETECTION” (THE METHODIST HOSPITAL SYSTEM, priority 2014, published 2017).

Conditions: in DMSO

For `CC1(C)C(/C=C/C=C/C=C/C=C2\N(CCCCS(=O)(=O)O)c3ccc4ccccc4c3C2(C)C)=[N+](CCCCS(=O)(=O)[O-])c2ccc3ccccc3c21` [indocyanine green], the “quantum yield Φ of reference” value is given as 0.106.
